{"source": "patent US6737272B2", "about": "“Methods for modulation of oocyte activation” (The Board of Trustees of the Leland Stanford Junior …, priority 1999, dated 2004)", "key": {"[1]": {"system": "L. pictus eggs", "assay": "Egg activation after insemination of injected eggs", "settings": "for subsequent activation of oxyHb-inhibited eggs: after insemination, ionomycin 2 μM, GTPγS 100 μM final or cGMP 50 μM final injected; for fertilization envelope elevation / egg activation after insemination: eggs injected with oxyHb 12.5 or 50 μM, or 50 μM BSA, apoHb, cyanometHb, 1:20,000 sperm dilution", "quoted_text": "(§2) Also, co-injection of SNAP or CaM/nNOS with oxyHb. […] Subsequent activation of oxyHb-inhibited eggs by ionomycin (2 μM) or injection of either GTPγS (100 μM final) or cGMP (50 μM final).\n(§3) The necessity of NO (or its equivalents) was assessed by injecting eggs with oxyHb."}, "[2]": {"system": "NOS", "settings": "gamete homogenates; ornithine 1.5 mM, nitro-L-arginine 100 μM", "quoted_text": "Absorbance at 585 nm was measured and normalized to total protein. […] This diaphorase activity is indicative of NOS activity. […] NOS activity is shown measured by citrulline conversion.\nNADPH-dependent diaphorase activity or histochemical staining was assessed after a 24-h fixation of gametes. For activity measurements, gametes were lysed (sperm) or sonicated (eggs) in PBS with 1% NP-40 and incubated overnight in 1 mM NADPH, 0.5 mM NBT. Immunodepletion of diaphorase activity was done after size separation (>100K molecular weight cut-off (Amicon)). [^3H]arginine to [^3H]citrulline conversion of gamete homogenates was assessed after two cycles of freeze-thaw lysis (sperm) or Dounce homogenization (eggs) (in mM): 50 KCl, 10 NaCl, 1 EDTA, 5 DTT, 20 HEPES with PIC; pH 8. For inhibition experiments, gamete homogenates were treated with 20% (v/v) activated Dowex to remove endogenous arginine. […] NO determination by DAF fluorescence (490/515 nm) was done after incubating gametes in seawater containing 10 μM DAF."}, "[3]": {"system": "L. pictus eggs", "assay": "Egg activation by microinjection (fertilization envelope elevation, pronuclear centering)", "quoted_text": "as §2"}, "[4]": {"system": "S. purpuratus eggs", "assay": "NO production after egg activation, DAF fluorescence", "format": "cell-based", "settings": "1 mM ionomycin, 5 min", "source_text": "(§1) We measure production of NO by gametes by accumulation of nitrite, an auto-oxidation product of NO, or by fluorescence changes in the NO indicator dye, diaminofluorescein (DAF). Qualitatively similar results are seen for exogenous NO production: activation of either male or female gametes results in NO accumulation in the surrounding medium (Table 1). […] Pre-treatment with inhibitors of the acrosome reaction, substantially prevents NO generation, but is triggered after subsequent addition of ionomycin (Table 2). Similarly, eggs activated by ionomycin treatment generate NO, although at lower levels than sperm (Table 1)."}, "[5]": {"system": "S. purpuratus sperm", "assay": "NO production after sperm activation, nitrite accumulation", "format": "cell-based", "settings": "5 min, 5 mM ionomycin or egg jelly, normalized to per cent acrosome reaction", "source_text": "as §1"}, "[6]": {"system": "S. purpuratus eggs", "assay": "NO production after egg activation, nitrite accumulation", "format": "cell-based", "settings": "1 mM ionomycin, 5 min", "source_text": "as §1"}, "[7]": {"system": "S. purpuratus sperm", "assay": "NO production after sperm activation, DAF fluorescence", "format": "cell-based", "settings": "5 min, 5 mM ionomycin or egg jelly", "source_text": "as §1"}, "[8]": {"system": "bovine oocytes", "assay": "Calcium oscillations in bovine oocytes (fura-2 AM imaging)", "format": "cell-based", "settings": "oxyhemoglobin injected 30 to 45 minutes before sperm factor, ~200 uM final heme", "description": "Bovine oocytes were ordered from Bomed (2433 University Avenue, Madison, Wis. 53705-3835). They collect the oocytes from the ovaries of slaughtered cows and place them immediately in maturation media to be shipped overnight.\nOocytes were matured overnight and used within 24-28 hours of collection. Oocytes were washed briefly three times in TL-HEPES media and then denuded by vortexing for 3 minutes in TL-HEPES containing 0.2% hyaluronidase. Denuded oocytes were subsequently washed in TL-HEPES and loaded with fura-2 AM by incubation at 37° C. for 15 to 30 minutes. Oocytes were attached to imaging dishes (Biopteks) using 50 μg/ml poly-D-lysine and imaged using 350/380 nm excitation and 510 nm emission filters on a Zeiss Axiovert S100 microscope and fluorescence intensity quantified using Metafluor 4.1 (Universal Imaging).\nSNAP ([…]), an NO donor was synthesized prior to use by the method of Fehsel et al. (1996) Meth. Enzymol. 269:426-434. NO release was accomplished by bath addition of SNAP. Calcium release could be effectuated by addition of SNAP at varying concentrations (0.5 mM to 5 mM).\nSperm factor was prepared by the method of Wu et al. (Wu et al., 1997) and injected by a Narishige syringe microinjector to ˜2% oocyte volume. […] Calcium levels were monitored as detailed above."}, "[9]": {"system": "L. pictus eggs", "assay": "Calcium release in eggs at fertilization measured by calcium green-2", "settings": "oxyHb-injected eggs (14 eggs)", "quoted_text": "as §2, §3"}}}
{"molecule": "Nc1nc2c(ncn2[C@@H]2O[C@H](COP(=O)(O)OP(=O)(O)OP(O)(O)=S)[C@@H](O)[C@H]2O)c(=O)[nH]1", "note": "[GTPS]", "values": [{"measurement": "subsequent activation of oxyHb-inhibited eggs", "setting": "[1]", "result": "elevate fertilization envelopes"}]}
{"molecule": "N=C(NCCC[C@H](N)C(=O)O)N[N+](=O)[O-]", "note": "[NG-nitro-L-arginine]", "values": [{"measurement": "effect on citrulline conversion activity", "setting": "[2]", "result": "greatly suppresses"}]}
{"molecule": "[N]=O", "note": "[NO, nitric oxide]", "values": [{"measurement": "egg activation by bath application", "setting": "[3]; bath application, not injected", "result": "ineffective"}]}
{"molecule": "Nc1nc2c(ncn2[C@@H]2O[C@@H]3COP(=O)(O)O[C@H]3[C@H]2O)c(=O)[nH]1", "note": "[cGMP]", "values": [{"measurement": "subsequent activation of oxyHb-inhibited eggs", "setting": "[1]", "result": "elevate fertilization envelopes"}]}
{"molecule": "C[C@H](CCC(=O)O)C[C@H](C)C[C@H](C)C(=O)/C=C(\\O)[C@H](C)C[C@H](C)C/C=C/[C@@H](C)[C@@H](O)[C@@H](C)[C@@H](O)C[C@@H]1CC[C@@](C)([C@H]2CC[C@@](C)([C@@H](C)O)O2)O1", "note": "[ionomycin]", "values": [{"measurement": "DAF Fluorescence", "setting": "[4]; Eggs (1%, v/v)", "result": "56 ± 10", "unit": "arbitrary units"}, {"measurement": "DAF Fluorescence", "setting": "[4]; Eggs (2%, v/v)", "result": "76 ± 8", "unit": "arbitrary units"}, {"measurement": "DAF Fluorescence", "setting": "[4]; Eggs (5%, v/v)", "result": "112 ± 6", "unit": "arbitrary units"}, {"measurement": "Nitrite", "setting": "[5]; Sperm (1 μl)", "result": "75 ± 30", "unit": "pmol"}, {"measurement": "Nitrite", "setting": "[5]; Sperm (5 ml)", "result": "153 ± 15", "unit": "pmol"}, {"measurement": "Nitrite", "setting": "[5]; Sperm (10 ml)", "result": "283 ± 15", "unit": "pmol"}, {"measurement": "subsequent activation of oxyHb-inhibited eggs", "setting": "[1]", "result": "elevate fertilization envelopes"}, {"measurement": "Nitrite", "setting": "[6]; Eggs (1%, v/v)", "result": "64 ± 4", "unit": "pmol"}, {"measurement": "Nitrite", "setting": "[6]; Eggs (2%, v/v)", "result": "82 ± 9", "unit": "pmol"}, {"measurement": "Nitrite", "setting": "[6]; Eggs (5%, v/v)", "result": "141 ± 10", "unit": "pmol"}, {"measurement": "DAF Fluorescence", "setting": "[7]; Sperm (1 μl)", "result": "103 ± 13", "unit": "arbitrary units"}, {"measurement": "DAF Fluorescence", "setting": "[7]; Sperm (5 ml)", "result": "543 ± 35", "unit": "arbitrary units"}, {"measurement": "DAF Fluorescence", "setting": "[7]; Sperm (10 ml)", "result": "910 ± 93", "unit": "arbitrary units"}]}
{"molecule": "bovine serum albumin: a nitrosylable protein", "values": [{"measurement": "fertilization envelope elevation / egg activation after insemination", "setting": "[1]", "result": "not significantly affected"}]}
{"molecule": "oxyHb: oxyhemoglobin, a physiological scavenger of NO", "values": [{"measurement": "effect on sperm factor induced calcium oscillations", "setting": "[8]", "result": "inhibition"}, {"measurement": "egg activation by SNAP or CaM/nNOS when co-injected with oxyHb", "setting": "[3]; co-injection", "result": "does not occur"}, {"measurement": "fertilization envelope elevation / egg activation after insemination", "setting": "[1]", "result": "dose-dependently inhibited"}, {"measurement": "pronuclear centering and first cell division", "setting": "[1]; oxyHb-injected eggs after insemination", "result": "0 out of 15"}, {"measurement": "peak Ca2+ post-fertilization", "setting": "[9]; control 1.4±0.2 μM", "result": "540 ± 95", "unit": "nM"}, {"measurement": "resting Ca2+", "setting": "[9]; control 240±30 nM", "result": "280 ± 65", "unit": "nM"}]}
{"molecule": "recombinant nNOS with calmodulin (CaM): recombinant CaM-nNOS complexes formed by mixing CaM with nNOS", "values": [{"measurement": "pronuclear centering (eggs exhibiting a full fertilization envelope)", "setting": "[3]; injected eggs", "result": "13 out of 13"}]}
{"molecule": "nNOS: recombinant neuronal nitric oxide synthase from Stratagene (protein, UniProt P29475 1-1434, looked up) Nitric oxide synthase 1: MEDHMFGVQQIQPNVISVRLFKRKVGGLGFLVKERVSKPPVIISDLIRGGAAEQSGLIQAGDIILAVNGRPLVDLSYDSALEVLRGIASETHVVLILRGPEGFTTHLETTFTGDGTPKTIRVTQPLGPPTKAVDLSHQPPAGKEQPLAVDGASGPGNGPQHAYDDGQEAGSLPHANGLAPRPPGQDPAKKATRVSLQGRGENNELLKEIEPVLSLLTSGSRGVKGGAPAKAEMKDMGIQVDRDLDGKSHKPLPLGVENDRVFNDLWGKGNVPVVLNNPYSEKEQPPTSGKQSPTKNGSPSKCPRFLKVKNWETEVVLTDTLHLKSTLETGCTEYICMGSIMHPSQHARRPEDVRTKGQLFPLAKEFIDQYYSSIKRFGSKAHMERLEEVNKEIDTTSTYQLKDTELIYGAKHAWRNASRCVGRIQWSKLQVFDARDCTTAHGMFNYICNHVKYATNKGNLRSAITIFPQRTDGKHDFRVWNSQLIRYAGYKQPDGSTLGDPANVQFTEICIQQGWKPPRGRFDVLPLLLQANGNDPELFQIPPELVLEVPIRHPKFEWFKDLGLKWYGLPAVSNMLLEIGGLEFSACPFSGWYMGTEIGVRDYCDNSRYNILEEVAKKMNLDMRKTSSLWKDQALVEINIAVLYSFQSDKVTIVDHHSATESFIKHMENEYRCRGGCPADWVWIVPPMSGSITPVFHQEMLNYRLTPSFEYQPDPWNTHVWKGTNGTPTKRRAIGFKKLAEAVKFSAKLMGQAMAKRVKATILYATETGKSQAYAKTLCEIFKHAFDAKVMSMEEYDIVHLEHETLVLVVTSTFGNGDPPENGEKFGCALMEMRHPNSVQEERKSYKVRFNSVSSYSDSQKSSGDGPDLRDNFESAGPLANVRFSVFGLGSRAYPHFCAFGHAVDTLLEELGGERILKMREGDELCGQEEAFRTWAKKVFKAACDVFCVGDDVNIEKANNSLISNDRSWKRNKFRLTFVAEAPELTQGLSNVHKKRVSAARLLSRQNLQSPKSSRSTIFVRLHTNGSQELQYQPGDHLGVFPGNHEDLVNALIERLEDAPPVNQMVKVELLEERNTALGVISNWTDELRLPPCTIFQAFKYYLDITTPPTPLQLQQFASLATSEKEKQRLLVLSKGLQEYEEWKWGKNPTIVEVLEEFPSIQMPATLLLTQLSLLQPRYYSISSSPDMYPDEVHLTVAIVSYRTRDGEGPIHHGVCSSWLNRIQADELVPCFVRGAPSFHLPRNPQVPCILVGPGTGIAPFRSFWQQRQFDIQHKGMNPCPMVLVFGCRQSKIDHIYREETLQAKNKGVFRELYTAYSREPDKPKKYVQDILQEQLAESVYRALKEQGGHIYVCGDVTMAADVLKAIQRIMTQQGKLSAEDAGVFISRMRDDNRYHEDIFGVTLRTYEVTNRLRSESIAFIEESKKDTDEVFSS", "values": [{"measurement": "injected amount yielding activation", "setting": "[3]; recombinant nNOS, with CaM", "result": "~0.0075", "unit": "pg"}]}
